Data set [1] can be described thus: Cytotoxicity on MRC-5 fibroblasts (resazurin). The format is cell-based, human. The following applies: human. As for the experimental part: Cytotoxicity assays were performed on MRC-5SV2 (Sigma-Aldrich/ECACC, catalogue number 84100401) human embryonic lung fibroblasts, which were cultured in minimum essential medium with Earle’s salt medium, supplemented with L-glutamine, NaHCO3 and 5% inactivated foetal calf serum. All cultures and assays were conducted at 37 °C with 5% CO2. Ten microliters of the aqueous compound dilutions were added to 190 µL of MRC-5SV2 (3 × 10^4 cells mL^−1). Cell growth was compared to untreated control wells (100% cell growth) and medium control wells (0% cell growth). After a 3-day incubation, cell viability was assessed fluorimetrically after the addition of 50 μL resazurin per well (final concentration of 10 µg mL^−1). After 4 h at 37 °C, fluorescence was measured (λex 550 nm, λem 590 nm). The results were expressed as percentage reduction in cell growth/viability compared to control wells and an EC50 was determined.
In general terms: Alamar Blue is a resazurin reagent that responds to reducing activity.

Details of data set [2]: method as in earlier work. Particulars: ref 36 (Olsen, D. B. et al.), cited from earlier work.
For data set [3], the target named is Lister 427WT T. b. brucei. The experiment in a line: Adenosine deaminase susceptibility (drug sensitivity with/without 2 µM deoxycoformycin). In kind it is cell-based, Trypanosoma brucei brucei. Particulars: for EC50: Trypanosoma brucei, Lister 427WT, mean ± SEM, n=3. As for the experimental part:
Drug susceptibility tests with Lister 427WT, TbAT1-KO[48], B48[26] and ISMR1[27] were performed using an assay based on the viability indicator dye resazurin in 96-well plates, each well containing 2 × 10^4 cells. The plates were incubated for 48 h with a doubling dilution series of the test compounds in HMI-9/fetal bovine serum at 37 °C/5% CO2 (23 dilutions starting at 100 µM, except for the pentamidine control (50 µM)), after which resazurin (20 µL of 125 µg mL^−1 resazurin sodium salt solution was added to each well (containing 200 µL of cells and test compound)) was added to each well and the plates incubated for another 24 h. Fluorescence was determined using a FLUOstar Optima (BMG Labtech, Durham, NC) and the results fitted to a sigmoid curve with variable slope using Prism 5.0 or Prism 7.04 (GraphPad, San Diego, CA). […]
Adenosine deaminase susceptibility
in the presence or absence of 2 µM 2’-deoxycoformycin. […]

For data set [4], the system named is T. b. brucei Lister 427WT. The experiment in a line: Drug susceptibility test (resazurin), Lister 427WT. In kind it is cell-based, Trypanosoma brucei brucei. Particulars: Trypanosoma brucei. Here is the method: (§1) Drug susceptibility tests with Lister 427WT, TbAT1-KO[48], B48[26] and ISMR1[27] were performed using an assay based on the viability indicator dye resazurin in 96-well plates, each well containing 2 × 10^4 cells. The plates were incubated for 48 h with a doubling dilution series of the test compounds in HMI-9/fetal bovine serum at 37 °C/5% CO2 (23 dilutions starting at 100 µM, except for the pentamidine control (50 µM)), after which resazurin (20 µL of 125 µg mL^−1 resazurin sodium salt solution was added to each well (containing 200 µL of cells and test compound)) was added to each well and the plates incubated for another 24 h. Fluorescence was determined using a FLUOstar Optima (BMG Labtech, Durham, NC) and the results fitted to a sigmoid curve with variable slope using Prism 5.0 or Prism 7.04 (GraphPad, San Diego, CA).

The test system of data set [5] is T. b. rhodesiense STIB-900. Nature of the data set: microbe, parasite or virus in culture. In kind it is cell-based, Trypanosoma brucei rhodesiense. As for the experimental part:
as §1
(§2) Susceptibility assays with T. brucei Squib 427[49] or T. b. rhodesiense STIB-900[50] were performed under similar conditions as above, but using 10 concentrations of a 4-fold compound dilution series starting at 64 µM. Trypanosoma brucei Squib 427 was seeded at 1.5 × 10^4 parasites/well and T. b. rhodesiense at 4 × 10^3 parasites per well, followed by the addition of resazurin (final concentration of 10 µg mL^−1) after 24 h (T. brucei) or 6 h (T. b. rhodesiense).

The next data set has as its system T. brucei Squib 427. Nature of the data set: microbe, parasite or virus in culture. In kind it is cell-based, Trypanosoma brucei brucei. The following applies: for EC50: Trypanosoma brucei. As for the experimental part:
as §1, §2

Data set [6] has as its system B48: pentamidine, diminazene and melaminophenyl arsenical resistant T. brucei line. The experiment in a line: microbe, parasite or virus in culture. The following applies: for EC50: Trypanosoma brucei. In kind it is cell-based, Trypanosoma brucei brucei.
The test system of data set [7] is ISMR1: isometamidium-resistant T. brucei cell line. Nature of the data set: microbe, parasite or virus in culture. In kind it is cell-based, Trypanosoma brucei brucei. As for the experimental part: as §1
The test system of data set [8] is TbAT1-KO: T. brucei cell line lacking the TbAT1(P2) transporter gene. Nature of the data set: microbe, parasite or virus in culture. The format is cell-based, Trypanosoma brucei brucei. Here is the method: as §1
Data set [9] relates to Nc1ncnc2c1ncn2[C@@H]1O[C@H](CO)[C@@H](O)[C@H]1O. Nature of the data set: cells, lysate or membranes. Particulars: other: mean ± SEM, n = 3; pH 7.3.
Substrate in data set [10]: Nc1ncnc2c1ccn2[C@@H]1O[C@H](CO)C[C@H]1O
The experiment in a line: ADKIN assay (phosphorylation by purified recombinant enzyme, HPLC). The format is biochemical, Trypanosoma brucei. The following applies: other: first phosphorylation step; mean and SE, n = 3; pH 7.5. Here is the method:
The T. brucei ADKIN enzyme was diluted in a buffer containing 0.05% (v/v) Tween-20, 50 mM KCl, 0.1 mM dithiothreitol, and 50 mM Tris-HCl, pH 7.5 (dilution buffer), prior to use in the assay. The final assay mixture contained 12.5 ng T. brucei ADKIN, a range between 50 and 1000 µM of nucleoside 9 (or 1000 µM deoxyadenosine in the control reaction), 100 mM KCl, 10 mM MgCl2, 0.5 mM ATP, 5 mM potassium phosphate and 50 mM Tris-HCl, pH 7.5. The assay was incubated at 37 °C for 30 min, and subsequently heated for 2 min at 100 °C to inactivate the enzyme, diluted with 2 volumes of water, centrifuged through a Nanosep 3k Omega filter and mixed 1:1:2 with water and mobile phase. The HPLC analysis was performed on a 2.1 × 150 mm ACE Excel C18 column using a mobile phase composition 4A:76B:20C (see nucleotide pool analysis, Supplementary Information for details). Using these conditions, consecutive samples could be loaded (Supplementary Fig. 12). After 4–5 samples, the column was washed with high percent A (80A:20C) to remove bound ADP and ATP before re-equilibrating the column to original conditions.

“And” between values parts separate entries of the source, which are not always exact repeats. Equal values may be shown once. Read-outs that look alike come from different tables or passages of the source. Marks after values point to notes of the source that are not given here.

As usually defined, the EC50 is the concentration needed to bring the measured effect to its halfway point. As usually defined, the Km is the substrate concentration at which the rate is half of its maximum.

As for `Nc1ncnc2c1ccn2[C@@H]1O[C@H](CO)[C@@H](O)[C@H]1O` [Compound 6, Tubercidin, reference compound], the EC50 at 3 day in data set [1] (cytotoxicity in human MRC-5 fibroblasts, mean and SEM, read-out: MRC-5 EC50) was 2200 ± 700 nM; in data set [1] (source data, read-out: MRC-5 EC50, Average), 2230 nM. Also, the “acute toxicity in mice” value is reported as “tolerated with no visible signs of toxicity” in data set [2] (20 mg/kg over 14 days) and “lethal” in data set [2] (50 mg/kg). Also, the “effect of adenosine deaminase inhibition (2’-deoxycoformycin) on EC50” value in [3] is recorded as “not significantly affected”. In addition, the concentration giving a half-maximal response (EC50) was determined as 220 ± 10 nM in data set [3] (absence of deoxycoformycin, read-out: T. b. brucei EC50, -Dcf); 310 ± 70 nM in [3] (presence of 2 µM deoxycoformycin, read-out: T. b. brucei EC50, +Dcf); 150 ± 30 nM in [4] (mean and SEM, n = 3, read-out: Lister 427 EC50); 151 nM in data set [4] (source data, read-out: s427 EC50, AVG); 36 ± 1 nM in data set [5] (Trypanosoma brucei, RHODESIENSE, Alamar blue cell viability assay, mean and SEM, read-out: T. b. rhodesiense EC50); 36 nM in [5] (Trypanosoma brucei, RHODESIENSE, source data, read-out: T. brucei rhodesiense EC50, Average). Further, the EC50 was 35 nM in data set [5] (Trypanosoma brucei, RHODESIENSE, source data, read-out: T. brucei rhodesiense EC50, single measurements); 33.2 nM and 39.9 nM in data set [5] (source data, read-out: T. brucei rhodesiense EC50, single measurements); 480 ± 100 nM in the data set with T. brucei Squib 427 (Alamar blue cell viability assay, mean and SEM, read-out: T. b. brucei EC50); 480 nM in the data set on T. brucei Squib 427 (source data, read-out: T. brucei brucei EC50, Average); 4300 ± 1300 nM in data set [6] (mean and SEM, n = 3, read-out: B48 EC50); 4340 nM in data set [6] (source data, read-out: B48 EC50, AVG). Also, the 50% effective concentration (EC50) turned out to be 1700 ± 500 nM in data set [7] (Trypanosoma brucei, mean and SEM, n = 3, read-out: ISMR1 EC50); 1670 nM in data set [7] (Trypanosoma brucei, source data, read-out: ISMR1 EC50, AVG); 2150 nM in [7] (Trypanosoma brucei, source data, read-out: ISMR1 EC50, single determinations); 1190 nM in data set [7] (source data, read-out: ISMR1 EC50, single determinations); 2610 ± 700 nM in data set [8] (Trypanosoma brucei, read-out: TbAT1-KO EC50, mean and SEM, n = 3); 3260 nM in data set [8] (Trypanosoma brucei, read-out: TbAT1-KO EC50, single determinations, source data). Moreover, the EC50 in data set [8] (read-out: TbAT1-KO EC50, single determinations, source data) turned out to be 1950 nM. In addition, the “SI (MRC/T.b. rhodesiense)” value in data set [5] stood at 61. Further, the “SI (MRC/T.b. brucei)” value in the data set on T. brucei Squib 427 is 4. Further, in data set [6], the “RF (B48)” value is recorded as 28.7*. For the same molecule, the “RF (ISMR1)” value in data set [7] (resistance factor vs Lister 427WT) is listed as 11.1**. Moreover, the “RF (TbAT1-KO)” value in data set [8] (resistance factor: ratio of EC50 of resistant and Lister 427WT) is listed as 17.2**.
With “P2 transporter (TbAT1) (Trypanosoma brucei)”, the Km in [9] came out at 0.53 ± 0.02 µM.

B1: T. brucei ADKIN (Trypanosoma brucei brucei TREU927) (protein)
chain: MSSAPLRVYVQCNPLLDVSAHVSDEFLVKYGLERGTAILLSERQKGIFDDIEKMPNVRYVPGGSGLNVARVAQWMQQAYKGKFVTYVGCIADDRYGKVLKEAAEHEGIVMAVEHTTKAGSGACAVCITGKERTLVADLGAANHLSSEHMRSPAVVRAMDESRIFYFSGFTLTVDVNHVLQACRKAREVDGLFMINLSAPFIMQFFSAQLGEVLPYTDIIVANRHEAKEFANMMKWDTDCVEEIARRAVSEVPYTGTKGRVVVFTRDIEPTVIATKDGVETVPVPQLDQDKVIDMNGAGDAFVGGFLSAYAVGKDLRRCCETGHYTAQEVIQQDGCSFPEKPSFSP
On to B1, for which, in data set [10], the Km came to 195 ± 24 µM.

Source of the values: PMC6895180 (Nature Communications, 2019).
